In patent US20040126817A1, “Gap junction permeability assay” (priority 2001, published 2004):
Where a name gives a salt, the structure may show the parent alone.

Tests used:
[1] = test system: GJIC in NRK (Normal Rat Kidney) cells, mainly Cx43; assay: Gap junction coupling assay, NRK sender cells (D1-receptor) plus NRK receiver cells (CRE-luciferase), endogenous connexins; format: cell-based; details: for Luciferase response, 50 μM AGA / Luciferase response, 100 μM AGA / Luciferase response, 150 μM AGA / Luciferase response, Vehicle: NRK sender:receiver 1:1, agonist 10 μM, 6½ hours; for Luciferase response, 50 μM AGA: 50 μM AGA added 30 min before; for Luciferase response, 50 μM AGA / Luciferase response, 100 μM AGA / Luciferase response, 150 μM AGA / Luciferase response, Vehicle / Luciferase responses: control = 100%; for Luciferase response, 100 μM AGA: 100 μM AGA added 30 min before; for Luciferase response, 150 μM AGA: 150 μM AGA added 30 min before; for Luciferase response, Vehicle: no AGA (DMSO); for Luciferase responses: NRK sender:receiver 1:1, 10 μM forskolin or 1 μM cAMP, 6 hours
[2] = test system: Cx32-mediated GJIC in HeLa cells; assay: Gap junction coupling assay, HeLa sender and receiver cells with or without transfected Cx32; format: cell-based, human; details: 10 μM, duplicates; for Luciferase response, Cells transfected with Cx32: 4.8 μg Cx32 DNA; for Luciferase response, Cells transfected with Cx32 / Luciferase response, Cells not transfected with Cx32: 1 ml sender + 0.2 ml receiver cells, percentage of control; for Luciferase response, Single dose Cx32: sender cells 2.4 μg Cx32 DNA; for Luciferase response, Single dose Cx32 / Luciferase response, Double dose Cx32: control = 100%; for Luciferase response, Double dose Cx32: sender cells 4.8 μg Cx32 DNA
[3] = test system: NRK cells; assay: CRE-luciferase response in NRK receiver cells only (check for endogenous D1-receptor); format: cell-based, rat; details: for Luciferase responses: 10 μM, 6½ hours, control = 100%
Experimental: These experiments are performed to investigate whether the NRK cells express the D1-receptor endogenously. If NRK cells express D1 receptor endogenously, the receiver cells would be able to generate cAMP and produce a chemiluminescent signal independently of GJIC and the endogenous messenger generated by the sender cell. So only receiver cells are used for this experiment.
Cells are transfected with 5 μg CRE-luciferase DNA and 500 ng pRL-SV40 DNA per 6 cm dish. Each well of a 24-well plate received 250 μL cell suspension and 250 μL media, or approx. 25 000 cells. Cells are stimulated with 10 μM forskolin or apomorphine during 6½ hours before harvesting.

[4] = test system: GJIC in CHO (Chinese Hamster Ovary) cells; assay: Gap junction coupling assay, CHO sender and receiver cells with or without exogenous Cx32; format: cell-based; details: 10 μM, 8 hours, control = 100%, duplicates; for Luciferase response, With exogenous Cx32: CHO transfected with Cx32 DNA; for Luciferase response, No exogenous Cx32: CHO
[5] = test system: HeLa cells; assay: CRE-luciferase response in HeLa receiver cells only; format: cell-based, human; details: n=2, control = 100%
Experimental: This is conformed by an experiment in which apomorphine is added to wells containing only receiver cells. As predicted, there is no elicited response. Luciferase activity values are 100.0±6.5% (control, n=2) and 75.9±3.0% (apomorphine, n=2).

[6] = IV injection of glucagon in humans; cited from earlier work

| Compound | Luciferase response, Cells transfected with Cx32 [2] | Luciferase response, Cells not transfected with Cx32 [2] | Luciferase response, Single dose Cx32 [2] | Luciferase response, Double dose Cx32 [2] | Luciferase responses [3] | Luciferase response, With exogenous Cx32 [4] | Luciferase response, No exogenous Cx32 [4] | Luciferase response, 50 μM AGA [1] | Luciferase response, 100 μM AGA [1] | Luciferase response, 150 μM AGA [1] | Luciferase response, Vehicle [1] | Luciferase responses [1] | other results |
| --- | --- | --- | --- | --- | --- | --- | --- | --- | --- | --- | --- | --- | --- |
| CC1(C)[C@@H](O)CC[C@]2(C)[C@H]3C(=O)C=C4[C@H]5C[C@@](C)(C(=O)O)CC[C@]5(C)CC[C@@]4(C)[C@]3(C)CC[C@@H]12 [18-alpha-glycyrrhetinic acid] |  |  |  |  |  |  |  |  |  |  |  |  | effect on the apomorphine-induced chemiluminescent signal (GJIC) ([1]; NRK, 50, 100, 150 μM AGA, 10 μM apomorphine): able to decrease this effect in a concentration-dependent manner; effect on the response to forskolin (independent of GJIC) ([1]; NRK, 50, 100, 150 μM AGA, 10 μM forskolin): unaffected |
| CN1CCc2cccc3c2[C@H]1Cc1ccc(O)c(O)c1-3 [Apomorphine, Apomorphine hydrochloride] | 217.5 ± 3.0% | 109.5 ± 1.1% | 121.1 ± 7.2% | 176.5 ± 8.1% | 124.8%±6.8 | 302.2 ± 2.2% | 222.6 ± 22.6% | 156.0 ± 8.9% | 137.6 ± 9.3% | 109.7 ± 8.0% | 297.5% |  | Luciferase activity values [5]: 75.9±3.0%; increase over background of the chemiluminescent signal ([1]; NRK sender:receiver 1:1, 10 μM apomorphine): three-fold increase; Receiver Cell Response ([1]; NRK sender:receiver 5:1, 6 hours, buffer = 100%, mean±SEM of 3): 324 ± 14.4% |
| C=C[C@@]1(C)CC(=O)[C@]2(O)[C@@]3(C)[C@@H](O)CCC(C)(C)[C@@H]3[C@H](O)[C@H](OC(C)=O)[C@@]2(C)O1 [Forskolin, forskolin] | 254.6 ± 113.3% | 272.5 ± 40.9% | 139.0 ± 14.3% | 195.1 ± 18.2% | 876.6%±64.1 | 356.5 ± 21.8% | 701.9 ± 0.0% | 732.6 ± 52.2% | 669.9 ± 18.3% | 685.8 ± 32.0% | 581.3% | 669.3±56.8% | increase in chemiluminescent signal ([3]; 10 μM forskolin): more than 8 fold |
| Nc1ncnc2c1ncn2[C@@H]1O[C@@H]2COP(=O)(O)O[C@H]2[C@H]1O [cAMP, cyclic adenosine monophosphate] |  |  |  |  |  |  |  |  |  |  |  | 87.5±5.8% |  |
| glucagon |  |  |  |  |  |  |  |  |  |  |  |  | plasma levels of cAMP [6]: up to 200 nM |
